Measurements as given in US8652791B2, “Method of classifying human subjects having adolescent idiopathic scoliosis (AIS) and method for screening for a compound useful in the treatment of AIS and related syndromes causing spinal deformities” (Hopital Sainte-Justine, priority 2002, dated 2014).
Entries after “also recorded” stand apart in the source; their conditions may differ. Blank lines part the entries; values can stand above or below the compound they belong to.

Key:
[1] = system: forskolin-stimulated adenylyl cyclase activity in osteoblasts; test: cAMP accumulation assay in osteoblasts, melatonin as agonist; format: cell-based, human
Description: Osteoblasts from patients with AIS and control subjects were seeded in quadruplet on 24-wells plate (1×10^5 cells/well) and incubated either with the vehicle alone, dimethyl sulphoxide (DMSO, Sigma™, Oakville, ON, Canada) or the diterpene forskolin (10^−5M, Sigma™) to stimulate the cAMP formation. Inhibition curves of cAMP production were generated by adding melatonin to the forskolin-containing samples in concentrations ranging from 10^−11M to 10^−5M in a final volume of 1 ml of DMEM media with 0.5% bovine serum albumin (BSA, Sigma™). After a 30-minute incubation at 37° C., the cells were lysed and the sample centrifuged at 4° C. The cAMP content was determined in 200 μl aliquot of the supernatant using an enzyme immunoassay kit (Amersham-Pharmacia Biosciences, Mississauga, ON, Canada). All assays were performed in duplicate.
A method of screening of the present invention was performed and identified estrogen as one compound able to modulate the melatonin-signaling pathway impairment in AIS patients. Experiments were performed showing the effect of increasing concentrations of melatonin (10^−11 to 10^−5M) used as known agonist of melatonin-signaling pathway on forskolin-stimulated adenylyl cyclase activity in osteoblasts from two patients with AIS (group 3 see Table 2) treated or not with a physiological dose of estradiol (10^−10M). Results illustrated in panels A and B of FIG. 19 correspond to AIS patient numbered 13 and 29 in Table 1, respectively.

[2] = system: Gi proteins (inhibition of adenylyl cyclase activity in osteoblasts); test: cAMP accumulation assay in osteoblasts, Gpp(NH)p as agonist; format: cell-based, human; settings: forskolin-stimulated
Description: The functionality of Gi proteins was assessed by investigating their ability to inhibit adenylyl cyclase activity in osteoblasts. To obtain inhibition curve of cAMP production the non-hydrolysable analogue of GTP, Gpp(NH)p (guanilyl 5′-imidophosphate, Sigma™) was added to the forskolin-containing samples in concentrations ranging from 10 nM to 100 μM. The cAMP content was determined as described above in similar assays with melatonin.
The values reported in FIG. 8 were detected after the administration of 10^−9M Gpp(NH)p, a GTP non-hydrolysable analogue.

[3] = system: forskolin-stimulated adenylyl cyclase activity in myoblasts; test: cAMP accumulation assay in skeletal myoblasts, melatonin as agonist; format: cell-based, human; settings: myoblasts from AIS patients
Description: The functionality of melatonin signaling is assessed by investigating the ability of Gi proteins to inhibit stimulated adenylyl cyclase activity in intact skeletal myoblasts. Cells prepared from patients with AIS and control subjects are seeded in quadruplet on 24-wells plate (1×10^5 cells/well) and incubated either with dimethyl sulphoxide (DMSO, Sigma™) or forskolin (10^−5M, Sigma™) to stimulate the cAMP formation. To obtain the inhibition curve of cAMP production, melatonin is added to the forskolin-containing samples in concentrations ranging from 10^−11M to 10^−5M in a final volume of 1 ml of DMEM media with 0.5% bovine serum albumin (BSA). After a 30-minute incubation at 37° C., the cells are lysed and the sample centrifuged at 4° C. The cAMP content is determined in 200 μl aliquot of the supernatant using an enzyme immunoassay kit (Amersham-Pharmacia Biosciences).

human osteoblasts = test: Osteoblast proliferation assay ([3H]-thymidine incorporation); format: cell-based; settings: melatonin 10^-9M
Description: An assay was performed to compare the proliferation of osteoblasts of normal subjects with that of scoliotic patients. […]

human osteoclasts = test: Osteoclast pit resorption assay on bone matrix; format: cell-based
Description: The inhibitory effect of melatonin on osteoclasts activity was performed using normal human osteoclasts derived from peripheral blood. Mel, melatonin; luz, luzindole, a specific MT2 antagonist;
Other functional assays with melatonin using osteoclasts derived from monocytes/lymphocytes fraction isolated from peripheral blood of AIS patients and control subjects are performed. Primary osteoclasts are derived from the peripheral blood of patients and non-scoliotic subjects using 10 ml of blood or less. Anticoagulant-treated blood is layered on the Ficoll-Paque™ solution and centrifuged for a short period of time. Differential migration during centrifugation results in the formation of layers containing different blood cells. Because of their lower density, the lymphocytes are found at the interface between the plasma and the Ficoll-Paque™ with other slowly sedimenting particles (platelet and monocytes). The lymphocytes are then recovered from the interface and subjected to a short washing step with a balanced salt solution to remove any platelets, Ficoll-Paque™ and plasma. The cells are then counted and seeded at high density (1×10^6 cells per cm^2) onto artificial bone or dentin matrix in α-MEM with 10% FBS and antibiotics. After a few days, cells that remain adherent will start to differentiate into osteoclasts, forming large multinucleate cells after 15-20 days.

[4] = system: Gi proteins coupled to MT1 and MT2 receptors; test: Co-immunoprecipitation of Gi proteins coupled to melatonin receptors and their phosphorylation state; format: cell-based, human; settings: for phosphorylated forms of Gi3 and Gi2 in MT1 or MT2 immune complexes: overnight treatment of the cells
Description: Co-immunoprecipitation assays were performed with anti-MT1 and anti-MT2 specific antibodies (kind gifts of Dr Debora Angeloni and Prof Franco Fraschini, University of Milan, Italy) to identify Gi proteins coupled to individual melatonin receptor in human MG-63 osteoblasts (FIG. 9).
The specific antibodies were incubated with membrane fractions purified from osteoblasts untreated and treated with melatonin (10^−9M), genistein or herbimycin (1 μM, tyrosine kinase inhibitors, Sigma™) or sodium orthovanadate, Na3VO4, (1 mM, tyrosine phosphatase inhibitor, Sigma™) for at least 16 h. Presence of coupled Gi proteins in respective immune-complexes were determined by SDS-PAGE and Western blot with specific Gi antibodies (Santa Cruz Biotechnology Inc., Santa Cruz, Calif., USA) and phosphorylation status of these coupled Gi proteins were determined using anti-phosphoserine, phosphothreonine and phosphotyrosine antibodies (Sigma™) using the same membrane after stripping. Purified recombinant Gi proteins were used as control for antibody specificity.

[5] = Bone mineral density (DEXA) in pinealectomized chicken; format: in vivo; settings: melatonin 3 mg/kg/day ip
Description: Treatment with melatonin, 3 mg/kg/day ip, increased BMD in treated animals. […]

[6] = system: MT1 receptor expression in MC3T3-E1 cells; test: RT-PCR expression analysis of melatonin receptors; format: cell-based; settings: melatonin 10^-7M
Description: RT-PCR were performed with specific primers corresponding to melatonin receptor subtypes, MT1 (panel A, FIG. 7), MT2 (panel B, FIG. 7) and OPN (panel C, FIG. 7) using 2 μg of RNA isolated every 2 h during a 24 h cycle from MC3T3-E1 cells treated (+) or not (−) with melatonin (10^−7M). […] PCR products were separated on a 1.5% agarose gel and visualized by ethidium bromide staining.

[7] = system: osteocalcin (OC), osteopontin (OPN) and bone sialoprotein (BSP); test: Expression analysis of osteoblast terminal differentiation markers; format: cell-based; settings: osteoblasts in vitro
[8] = system: scoliosis formation after pinealectomy; settings: treatment after pinealectomy in both animal models (chicken, bipedal rats); cited from earlier work

Structure (SMILES): C[C@]12CC[C@@H]3c4ccc(O)cc4CC[C@H]3[C@@H]1CC[C@@H]2O [estradiol]
effect on the inhibitory effect of melatonin on forskolin-stimulated adenylyl cyclase activity ([1]; osteoblasts from two AIS patients (group 3), estradiol 10^-10M, melatonin 10^-11 to 10^-5M): further block the inhibitory effect of melatonin

inhibitory effect on cAMP levels ([2]; osteoblasts from a majority of AIS patients): no inhibitory effect
effect on cAMP levels ([2]; osteoblasts from control subjects): reduced cAMP levels
Structure (SMILES): Nc1nc2c(ncn2[C@@H]2O[C@H](COP(=O)(O)OP(=O)(O)NP(=O)(O)O)[C@@H](O)[C@H]2O)c(=O)[nH]1 [Gpp(NH)p, guanilyl 5′-imidophosphate]

effect on cAMP accumulation ([1]; AIS group 1 osteoblasts): increased cAMP accumulation
response toward melatonin treatment (cAMP) ([1]; AIS group 3 osteoblasts): weak response
inhibitory effects on adenylyl cyclase activity ([1]; AIS group 3 osteoblasts, higher doses of melatonin): some significant inhibitory effects
binding of Gi3 and Gi2 proteins to MT2 receptors ([4]; osteoblast purified membranes, in presence of melatonin): increased
Structure (SMILES): COc1ccc2[nH]cc(CCNC(C)=O)c2c1 [melatonin]
inhibition of cAMP accumulation ([1]; AIS group 2 osteoblasts, even at 10^-7M or 10^-5M melatonin): no significant inhibition; also recorded: did not respond
inhibition of cAMP accumulation ([1]; AIS group 3 osteoblasts, physiological dose 10^-9M): no significant inhibition
reduction of cAMP levels (inhibition of forskolin-stimulated adenylyl cyclase activity) ([1]; osteoblasts from control subjects, forskolin 10^-5M, melatonin 10^-11M to 10^-5M, dose-dependent): 60-70%
inhibition of forskolin-stimulated adenylyl cyclase activity ([1]; osteoblasts from patients with AIS): lack of inhibition
inhibition of cAMP accumulation induced by forskolin ([3]; melatonin 10^-11 to 10^-5M, preliminary tests): incapacity of melatonin to inhibit cAMP accumulation
inhibition of cAMP accumulation induced by forskolin ([3]; supra pharmacological dose 10^-5M): able in 2 cases to inhibit cAMP accumulation
osteoblast growth rate ([3H]-thymidine incorporation) (human osteoblasts; normal osteoblasts): increases linearly
osteoblast growth rate ([3H]-thymidine incorporation) (human osteoblasts; osteoblasts from scoliotic patients): did not respond
osteoclasts resorption activity (human osteoclasts; normal human osteoclasts derived from peripheral blood, melatonin 10^-9M to 10^-7M): inhibits osteoclasts resorption activity
resorbing activity of osteoclasts (human osteoclasts; osteoclasts isolated from animals with AIS or related syndrome, reasonably predicted): does not affect resorbing activity
phosphorylated forms of Gi3 and Gi2 in MT1 or MT2 immune complexes [4]: completely abolished the presence of both phosphorylated forms
bone mineral density (BMD) [5]: increased BMD
MT1 receptor subtype expression (RT-PCR) [6]: down regulated
expression of osteoblast terminal differentiation markers OC, OPN and BSP [7]: up-regulates
formation of scoliosis after pinealectomy [8]: prevented the formation of scoliosis

Structure (SMILES): O=c1c(-c2ccc(O)cc2)coc2cc(O)cc(O)c12 [genistein]
phosphorylated forms of Gi3 and Gi2 in MT1 or MT2 immune complexes [4]: completely abolished the presence of both phosphorylated forms

Structure (SMILES): CC(=O)NCCc1c(Cc2ccccc2)[nH]c2ccccc12 [luzindole]
effect on the inhibition of osteoclasts resorption activity by melatonin (human osteoclasts; normal human osteoclasts, luzindole added with melatonin): prevents or reduces the inhibitory effect of melatonin
